Results taken from article PMC5218480 (PLoS ONE, 2017).

Test system: MV-4-11 cells
Experiment: Gene expression microarray analysis (Affymetrix PrimeView) and GSEA
Assay type: cell-based, human
Set-up: RFU PODN (11730768_x_at) / Fold change /veh PODN (11730768_x_at) / RFU LINC00158 (11744669_a_at) / Fold change /veh LINC00158 (11744669_a_at) / RFU DUSP10 (11751237_a_at) / Fold change /veh DUSP10 (11751237_a_at) / RFU ID3 (11757404_x_at) / Fold change /veh ID3 (11757404_x_at) / RFU PLEKHG5 (11737974_s_at) / Fold change /veh PLEKHG5 (11737974_s_at) / RFU LRRC4B (11730491_at) / Fold change /veh LRRC4B (11730491_at) / RFU GIMAP4 (11747438_a_at) / Fold change /veh GIMAP4 (11747438_a_at) / RFU KRT8 (11758183_x_at) / Fold change /veh KRT8 (11758183_x_at) / RFU CNN1 (11734310_a_at) / Fold change /veh CNN1 (11734310_a_at) / RFU VPS37D (11726825_at) / Fold change /veh VPS37D (11726825_at) / RFU C10orf10 (11716522_x_at) / Fold change /veh C10orf10 (11716522_x_at) / RFU KIR2DL2 /// KIR2DL4 /// KIR2DL5A /// KIR2DL5B /// KIR2DS1 /// KIR2DS2 /// KIR2DS3 /// KIR2DS4 /// KIR3DL3 /// KIR3DL3 /// KIR3DS1 (11738374_at) / Fold change /veh KIR2DL2 /// KIR2DL4 /// KIR2DL5A /// KIR2DL5B /// KIR2DS1 /// KIR2DS2 /// KIR2DS3 /// KIR2DS4 /// KIR3DL3 /// KIR3DL3 /// KIR3DS1 (11738374_at) / RFU C1QL1 (11718748_at) / Fold change /veh C1QL1 (11718748_at) / RFU TMPRSS4 (11747572_a_at) / Fold change /veh TMPRSS4 (11747572_a_at) / RFU HAMP (11756126_x_at) / Fold change /veh HAMP (11756126_x_at) / RFU RNFT2 (11725882_a_at) / Fold change /veh RNFT2 (11725882_a_at) / RFU NR4A2 (11747474_a_at) / Fold change /veh NR4A2 (11747474_a_at) / RFU ABCC12 (11746883_a_at) / Fold change /veh ABCC12 (11746883_a_at) / RFU TMEM136 (11760407_x_at) / Fold change /veh TMEM136 (11760407_x_at) / RFU CLDN22 /// WWC2 (11732394_at) / Fold change /veh CLDN22 /// WWC2 (11732394_at) / RFU HLA-DPB1 (11760878_x_at) / Fold change /veh HLA-DPB1 (11760878_x_at) / RFU SPINT1 (11716480_a_at) / Fold change /veh SPINT1 (11716480_a_at) / RFU GAP43 (11754022_s_at) / Fold change /veh GAP43 (11754022_s_at) / RFU A4GNT (11735810_at) / Fold change /veh A4GNT (11735810_at) / RFU PRB3 (11715151_x_at) / Fold change /veh PRB3 (11715151_x_at) / RFU TUBB4B (11761932_at) / Fold change /veh TUBB4B (11761932_at) / RFU CAPN14 (11732068_a_at) / Fold change /veh CAPN14 (11732068_a_at) / RFU TMCC2 (11721928_a_at) / Fold change /veh TMCC2 (11721928_a_at) / RFU IRGQ (11745062_a_at) / Fold change /veh IRGQ (11745062_a_at) / RFU FAM174B (11720279_a_at) / Fold change /veh FAM174B (11720279_a_at) / RFU TMPRSS4 (11748680_a_at) / Fold change /veh TMPRSS4 (11748680_a_at) / RFU FAM212B (11763350_a_at) / Fold change /veh FAM212B (11763350_a_at) / RFU PLEKHG5 (11743358_a_at) / Fold change /veh PLEKHG5 (11743358_a_at) / RFU ZSCAN30 (11745921_a_at) / Fold change /veh ZSCAN30 (11745921_a_at) / RFU CMKLR1 (11741424_a_at) / Fold change /veh CMKLR1 (11741424_a_at) / RFU LOC101060620 /// MAPK8IP1 (11723275_at) / Fold change /veh LOC101060620 /// MAPK8IP1 (11723275_at) / RFU SPTSSB (11747773_x_at) / Fold change /veh SPTSSB (11747773_x_at) / RFU PRSS12 (11739890_at) / Fold change /veh PRSS12 (11739890_at) / RFU BIN1 (11741810_x_at) / Fold change /veh BIN1 (11741810_x_at) / RFU WNT11 (11732464_a_at) / Fold change /veh WNT11 (11732464_a_at) / RFU C10orf10 (11716521_a_at) / Fold change /veh C10orf10 (11716521_a_at) / RFU C5orf56 (11738089_at) / Fold change /veh C5orf56 (11738089_at) / RFU CYB561 (11721691_x_at) / Fold change /veh CYB561 (11721691_x_at) / RFU ANKRD19P (11752326_a_at) / Fold change /veh ANKRD19P (11752326_a_at) / RFU OR2T12 /// OR2T33 /// OR2T8 (11738714_s_at) / Fold change /veh OR2T12 /// OR2T33 /// OR2T8 (11738714_s_at) / RFU VCAN (11748164_a_at) / Fold change /veh VCAN (11748164_a_at) / RFU JSRP1 (11732532_at) / Fold change /veh JSRP1 (11732532_at) / RFU KRTAP10-11 (11738290_x_at) / Fold change /veh KRTAP10-11 (11738290_x_at) / RFU MYO3A (11730013_a_at) / Fold change /veh MYO3A (11730013_a_at) / RFU EBF3 (11725865_a_at) / Fold change /veh EBF3 (11725865_a_at) / RFU CAMK2N1 (11719241_x_at) / Fold change /veh CAMK2N1 (11719241_x_at) / RFU C5orf56 (11738088_a_at) / Fold change /veh C5orf56 (11738088_a_at) / RFU OLFML3 (11715873_a_at) / Fold change /veh OLFML3 (11715873_a_at) / RFU LOC100653217 /// NTM (11731650_a_at) / Fold change /veh LOC100653217 /// NTM (11731650_a_at) / RFU MAPK11 (11762145_a_at) / Fold change /veh MAPK11 (11762145_a_at) / RFU FIZ1 (11724087_x_at) / Fold change /veh FIZ1 (11724087_x_at) / RFU OASL (11726364_x_at) / Fold change /veh OASL (11726364_x_at) / RFU SOX15 (11748057_x_at) / Fold change /veh SOX15 (11748057_x_at) / RFU CD79A (11719716_a_at) / Fold change /veh CD79A (11719716_a_at) / RFU HIST1H1D (11736915_at) / Fold change /veh HIST1H1D (11736915_at) / RFU CASKIN2 (11723855_a_at) / Fold change /veh CASKIN2 (11723855_a_at) / RFU LOC730098 (11760151_x_at) / Fold change /veh LOC730098 (11760151_x_at) / RFU OR4N2 (11742367_at) / Fold change /veh OR4N2 (11742367_at) / RFU PRRT2 (11749266_a_at) / Fold change /veh PRRT2 (11749266_a_at) / RFU SNX32 (11753110_a_at) / Fold change /veh SNX32 (11753110_a_at) / RFU CDHR5 (11726645_a_at) / Fold change /veh CDHR5 (11726645_a_at) / RFU RCAN1 (11760418_a_at) / Fold change /veh RCAN1 (11760418_a_at) / RFU FAM167A (11723789_a_at) / Fold change /veh FAM167A (11723789_a_at) / RFU FAM26E (11764081_at) / Fold change /veh FAM26E (11764081_at) / RFU ISYNA1 (11749810_s_at) / Fold change /veh ISYNA1 (11749810_s_at) / RFU ACY1 (11761880_at) / Fold change /veh ACY1 (11761880_at) / RFU 11764098_at / Fold change /veh 11764098_at / RFU SAMD14 (11745864_x_at) / Fold change /veh SAMD14 (11745864_x_at) / RFU NPB (11741838_a_at) / Fold change /veh NPB (11741838_a_at) / RFU TMPRSS6 (11731388_a_at) / Fold change /veh TMPRSS6 (11731388_a_at) / RFU KRTAP10-2 (11738614_at) / Fold change /veh KRTAP10-2 (11738614_at) / RFU ARHGAP8 /// PRR5-ARHGAP8 (11727945_x_at) / Fold change /veh ARHGAP8 /// PRR5-ARHGAP8 (11727945_x_at) / RFU KRTAP5-7 /// NADSYN1 (11734609_at) / Fold change /veh KRTAP5-7 /// NADSYN1 (11734609_at) / RFU RASL12 (11751679_a_at) / Fold change /veh RASL12 (11751679_a_at) / RFU CDKN2B (11736163_a_at) / Fold change /veh CDKN2B (11736163_a_at) / RFU PRF1 (11729649_at) / Fold change /veh PRF1 (11729649_at) / RFU, ZNF638 /// ZNF638-IT1 / Fold change vs veh, ZNF638 /// ZNF638-IT1 / RFU, PANK3 / Fold change vs veh, PANK3 / RFU, SH3YL1 / Fold change vs veh, SH3YL1 / RFU, ZEB2 / Fold change vs veh, ZEB2 / RFU, NRIP1 / Fold change vs veh, NRIP1 / RFU, PTTG1IP / Fold change vs veh, PTTG1IP / RFU, CAPN2 / Fold change vs veh, CAPN2 / RFU, MED14 / Fold change vs veh, MED14 / RFU, SNORA58 / Fold change vs veh, SNORA58 / RFU, C1orf63 / Fold change vs veh, C1orf63 / RFU, LRRFIP1 / Fold change vs veh, LRRFIP1 / RFU, NDUFAF7 / Fold change vs veh, NDUFAF7 / RFU, SLC12A2 / Fold change vs veh, SLC12A2 / RFU, IBTK / Fold change vs veh, IBTK / RFU, ESF1 / Fold change vs veh, ESF1 / Fold change vs veh, TMEM50B / RFU, TAOK1 / Fold change vs veh, TAOK1 / RFU, ACBD3 / Fold change vs veh, ACBD3 / RFU, TMA16 / Fold change vs veh, TMA16 / RFU, RWDD3 / Fold change vs veh, RWDD3 / RFU, BCAT1 / Fold change vs veh, BCAT1 / RFU, EDEM3 / Fold change vs veh, EDEM3 / RFU, TMEM33 / Fold change vs veh, TMEM33 / RFU, WDR75 / Fold change vs veh, WDR75 / RFU, AHCTF1 / Fold change vs veh, AHCTF1 / RFU, TFRC / Fold change vs veh, TFRC / RFU, ZDHHC17 / Fold change vs veh, ZDHHC17 / RFU, NOM1 / Fold change vs veh, NOM1 / RFU, ARL8B / Fold change vs veh, ARL8B / RFU, ZBTB11 / Fold change vs veh, ZBTB11 / RFU, TAMM41 / Fold change vs veh, TAMM41 / RFU, KIAA1704 /// LOC100996395 / Fold change vs veh, KIAA1704 /// LOC100996395 / RFU, ING1 / Fold change vs veh, ING1 / RFU, TRMT61B / Fold change vs veh, TRMT61B / RFU, FUBP3 / Fold change vs veh, FUBP3 / RFU, TP53 / Fold change vs veh, TP53 / RFU, TNKS2 / Fold change vs veh, TNKS2 / RFU, ZFP14 / Fold change vs veh, ZFP14 / RFU, ACTR2 / Fold change vs veh, ACTR2 / RFU, PPP3R1 / Fold change vs veh, PPP3R1 / RFU, PIK3R1 / Fold change vs veh, PIK3R1 / RFU, HNRNPA1 / Fold change vs veh, HNRNPA1 / RFU, RNF170 / Fold change vs veh, RNF170 / RFU, ZNF28 / Fold change vs veh, ZNF28 / RFU, RNGTT / Fold change vs veh, RNGTT / RFU, OGT / Fold change vs veh, OGT / RFU, BRD1 / Fold change vs veh, BRD1 / RFU, MARS / Fold change vs veh, MARS / RFU, ZNF655 / Fold change vs veh, ZNF655 / RFU, FAHD1 / Fold change vs veh, FAHD1 / RFU, BDP1 / Fold change vs veh, BDP1 / RFU, LRRCC1 / Fold change vs veh, LRRCC1 / RFU, ARID1A / Fold change vs veh, ARID1A / RFU, ZNF146 / Fold change vs veh, ZNF146 / RFU, ZNF330 / Fold change vs veh, ZNF330 / RFU, GPN3 / Fold change vs veh, GPN3 / RFU, C9orf123 / Fold change vs veh, C9orf123 / RFU, N4BP2L2 / Fold change vs veh, N4BP2L2 / RFU, ARFIP1 / Fold change vs veh, ARFIP1 / RFU, FAM179B / Fold change vs veh, FAM179B / RFU, BCL10 / Fold change vs veh, BCL10 / RFU, UHRF1BP1L / Fold change vs veh, UHRF1BP1L / RFU, BET1 / Fold change vs veh, BET1 / RFU, CNOT2 / Fold change vs veh, CNOT2 / RFU, ZNF268 / Fold change vs veh, ZNF268 / Fold change vs veh, ZNF507 / RFU, DGCR2 / Fold change vs veh, DGCR2 / RFU, WDSUB1 / Fold change vs veh, WDSUB1 / Fold change vs veh, HSP90B1 /// MIR3652 / RFU, ADSS / Fold change vs veh, ADSS / RFU, GK / Fold change vs veh, GK / RFU, ZNF148 / Fold change vs veh, ZNF148 / RFU, TAF9 / Fold change vs veh, TAF9 / RFU, SLC1A5 / Fold change vs veh, SLC1A5 / RFU, SLMO2 / Fold change vs veh, SLMO2 / RFU, ABCC4 / Fold change vs veh, ABCC4 / RFU, LOC101060439 /// RAP1B / Fold change vs veh, LOC101060439 /// RAP1B / RFU, RFX7 / Fold change vs veh, RFX7 / RFU, GTPBP10 / Fold change vs veh, GTPBP10 / RFU, CNEP1R1 / Fold change vs veh, CNEP1R1 / RFU, BIVM-ERCC5 /// ERCC5 / Fold change vs veh, BIVM-ERCC5 /// ERCC5 / RFU, ILF3 / Fold change vs veh, ILF3 / RFU 11762660_at / Fold change /veh 11762660_at / RFU VCAN (11757783_s_at) / Fold change /veh VCAN (11757783_s_at) / RFU DDX43 (11728927_at) / Fold change /veh DDX43 (11728927_at) / RFU KRT8 (11758188_x_at) / Fold change /veh KRT8 (11758188_x_at) / RFU NKD1 (11759106_at) / Fold change /veh NKD1 (11759106_at) / RFU SRD5A1 (11742802_a_at) / Fold change /veh SRD5A1 (11742802_a_at) / RFU TPSAB1 /// TPSB2 (11721975_s_at) / Fold change /veh TPSAB1 /// TPSB2 (11721975_s_at) / RFU GSTM3 (11746129_a_at) / Fold change /veh GSTM3 (11746129_a_at) / RFU IL23R (11737362_x_at) / Fold change /veh IL23R (11737362_x_at) / RFU TMEM51 (11727254_a_at) / Fold change /veh TMEM51 (11727254_a_at) / RFU PIWIL2 (11732686_x_at) / Fold change /veh PIWIL2 (11732686_x_at) / RFU ORM1 (11744905_x_at) / Fold change /veh ORM1 (11744905_x_at) / RFU CCDC152 (11743942_at) / Fold change /veh CCDC152 (11743942_at) / RFU ECM1 (11717891_a_at) / Fold change /veh ECM1 (11717891_a_at) / RFU IL23R (11748794_a_at) / Fold change /veh IL23R (11748794_a_at) / RFU TNFAIP8L3 (11732012_x_at) / Fold change /veh TNFAIP8L3 (11732012_x_at) / RFU MBOAT4 (11741988_at) / Fold change /veh MBOAT4 (11741988_at) / RFU 11764193_at / Fold change /veh 11764193_at / RFU TMEM53 (11763286_at) / Fold change /veh TMEM53 (11763286_at) / RFU MAGEB2 (11727129_at) / Fold change /veh MAGEB2 (11727129_at) / RFU TMEM200A (11744735_a_at) / Fold change /veh TMEM200A (11744735_a_at) / RFU CCDC152 (11751479_a_at) / Fold change /veh CCDC152 (11751479_a_at) / RFU FAM211A (11726209_a_at) / Fold change /veh FAM211A (11726209_a_at) / RFU RGS16 (11746705_a_at) / Fold change /veh RGS16 (11746705_a_at) / RFU VCAN (11755009_s_at) / Fold change /veh VCAN (11755009_s_at) / RFU RHOB (11743442_s_at) / Fold change /veh RHOB (11743442_s_at) / RFU RGS16 (11720943_a_at) / Fold change /veh RGS16 (11720943_a_at) / RFU RGS16 (11720944_at) / Fold change /veh RGS16 (11720944_at) / RFU, VPS4B / Fold change vs veh, VPS4B / RFU, CREB1 / Fold change vs veh, CREB1 / RFU, DNAJC13 / Fold change vs veh, DNAJC13 / RFU, GNAQ / Fold change vs veh, GNAQ / RFU, CDK5R1 / Fold change vs veh, CDK5R1 / RFU, ZRANB3 / Fold change vs veh, ZRANB3 / RFU, CUL4A / Fold change vs veh, CUL4A / RFU, CCNY / Fold change vs veh, CCNY / RFU, UFL1 / Fold change vs veh, UFL1 / RFU, COG3 / Fold change vs veh, COG3 / RFU, DIAPH2 / Fold change vs veh, DIAPH2 / RFU, SKA2 / Fold change vs veh, SKA2 / RFU, AFF3 / Fold change vs veh, AFF3 / RFU, LMF1 / Fold change vs veh, LMF1 / RFU, IPO11 / Fold change vs veh, IPO11 / RFU, DFFB / Fold change vs veh, DFFB / RFU, FOXP1 / Fold change vs veh, FOXP1 / RFU, CARD8 / Fold change vs veh, CARD8 / RFU, STRN3 / Fold change vs veh, STRN3 / RFU, ADK / Fold change vs veh, ADK / RFU, RASSF2 / Fold change vs veh, RASSF2 / RFU, WIPF1 / Fold change vs veh, WIPF1 / RFU, LARP1B / Fold change vs veh, LARP1B / RFU, RASA1 / Fold change vs veh, RASA1 / RFU, RB1 / Fold change vs veh, RB1 / RFU, PPFIA1 / Fold change vs veh, PPFIA1 / RFU, MAT2A / Fold change vs veh, MAT2A / RFU, CCT5 / Fold change vs veh, CCT5 / RFU, WDR92 / Fold change vs veh, WDR92 / RFU, CUX1 / Fold change vs veh, CUX1 / RFU, TTC7A / Fold change vs veh, TTC7A / RFU, TMEM135 / Fold change vs veh, TMEM135 / RFU, DEPTOR / Fold change vs veh, DEPTOR / RFU, CPM / Fold change vs veh, CPM / RFU, DNAJB6 / Fold change vs veh, DNAJB6 / RFU, CACNA2D3 / Fold change vs veh, CACNA2D3 / RFU, DTX4 / Fold change vs veh, DTX4 / RFU, TFCP2 / Fold change vs veh, TFCP2 / RFU, GMCL1 /// GMCL1P1 / Fold change vs veh, GMCL1 /// GMCL1P1 / RFU, AEBP2 / Fold change vs veh, AEBP2 / RFU, SNHG1 /// SNORD22 /// SNORD25 /// SNORD26 /// SNORD27 /// SNORD28 /// SNORD29 /// SNORD31 / Fold change vs veh, SNHG1 /// SNORD22 /// SNORD25 /// SNORD26 /// SNORD27 /// SNORD28 /// SNORD29 /// SNORD31 / Fold change (Aza/veh), C12orf56 (ProbeSet 11735607_a_at) / Fold change (ACY-1035/veh), C12orf56 (ProbeSet 11735607_a_at) / Fold change (Aza/veh), FGFR1OP (ProbeSet 11751329_s_at) / Fold change (ACY-1035/veh), FGFR1OP (ProbeSet 11751329_s_at) / Fold change (Aza/veh), VPS36 (ProbeSet 11739960_a_at) / Fold change (ACY-1035/veh), VPS36 (ProbeSet 11739960_a_at) / RFU SYPL1 (11715823_x_at) / Fold change /veh SYPL1 (11715823_x_at) / RFU IGFBP7 (11715501_s_at) / Fold change /veh IGFBP7 (11715501_s_at) / RFU REEP3 (11722064_at) / Fold change /veh REEP3 (11722064_at) / RFU IGLL1 (11728026_x_at) / Fold change /veh IGLL1 (11728026_x_at): dose or concentration left out as unconfirmed
Conditions: ProbeSet 11731583_a_at; LIST D

## Nc1ccc(-c2cccs2)cc1NC(=O)c1ccc2c(c1)cc(C1CC1)n2CCN1CCOCC1 [ACY-1035]
  RFU, LARP1B: 84.89 RFU
